Source: publication PMC8496750, “Identification of the organic anion transporting polypeptides responsible for the hepatic uptake of the major metabolite of epyrifenacil, S‐3100‐CA, in mice” (Pharmacology Research & Perspectives, 2021)

What was measured:
[1] = ^14C‐plasma, liver, and kidney distribution study with or without OATP inhibitors; assay type: in vivo, Crl:CD1(ICR) mice; settings: for Kidney/plasma ratio of ^14C / Liver/plasma ratio of ^14C / ^14C‐concentration in liver: 2 h; for Liver/plasma ratio of ^14C‐concentration: oral or intraperitoneal co‐administration of DGX
Procedure: Crl:CD1(ICR) mice at the age of 7 weeks were purchased from Charles River Laboratories Japan, Inc., Hino Breeding Center. The mice at the age of 8 or 9 weeks were dosed after completing a 7‐day quarantine period and an additional 0‐ to 7‐day acclimatization period. All animal experiments were conducted in accordance with the Guidance for the Care and Use of Laboratory Animals in our laboratory, which corresponds to the Guidelines for Proper Conduct of Animal Experiments (Science Council of Japan). Animals were maintained under constant environmental conditions: room temperature, 21−25°C; relative humidity, 55% ±15%; ventilation, 10 air exchanges per hour; and artificial lighting, from 8:00 am to 8:00 pm. The animals were provided with pelleted diet and water ad libitum. […] All animals were euthanized by bleeding from the abdominal artery under anesthesia.
[^14C]Epyrifenacil was isotopically diluted with the unlabeled test compound to adjust the specific activity to 5.00 MBq/mg. After evaporation of the solvent under nitrogen gas flow, labeled material was suspended in 0.5% (w/v) methylcellulose solution at a concentration of 1 mg/5 ml by grinding in a mortar. The suspension was stored frozen until the start of dosing. The radiochemical purity of the dosing suspension was analyzed by radio‐HPLC and was confirmed to be >99%. […] These dosing suspensions were stored in a refrigerator until dosing commenced.
Three mice per sex at 8 weeks old were given a single oral dose of [^14C]epyrifenacil at 1 mg/kg with or without co‐administration of OATP inhibitors. […] At 2 h after administration of [^14C]epyifenacil, the animals were euthanized by whole blood collection from the abdominal aorta under anesthesia with isoflurane. The sampling time point was selected as the time around T max based on the result of the blood ^14C‐concentration study. Then, the liver and kidney were dissected out, and the amount of ^14C was measured. Aliquots of heparinized blood samples were separated into blood cells and plasma by centrifugation at 2000g for 10 min at 4°C. The total weight of the liver and kidney was determined for each animal. Two aliquots of plasma and tissue samples (approximately 0.05–0.1 g) were weighed in a glass vial, and the radioactivity was measured.

mouse Oatp1a4 = biological target: T1, mouse Oatp1a4 (Mus musculus, UniProt Q9EP96); settings: inhibitor at 100 μM
T1 sequence (Q9EP96 1-670): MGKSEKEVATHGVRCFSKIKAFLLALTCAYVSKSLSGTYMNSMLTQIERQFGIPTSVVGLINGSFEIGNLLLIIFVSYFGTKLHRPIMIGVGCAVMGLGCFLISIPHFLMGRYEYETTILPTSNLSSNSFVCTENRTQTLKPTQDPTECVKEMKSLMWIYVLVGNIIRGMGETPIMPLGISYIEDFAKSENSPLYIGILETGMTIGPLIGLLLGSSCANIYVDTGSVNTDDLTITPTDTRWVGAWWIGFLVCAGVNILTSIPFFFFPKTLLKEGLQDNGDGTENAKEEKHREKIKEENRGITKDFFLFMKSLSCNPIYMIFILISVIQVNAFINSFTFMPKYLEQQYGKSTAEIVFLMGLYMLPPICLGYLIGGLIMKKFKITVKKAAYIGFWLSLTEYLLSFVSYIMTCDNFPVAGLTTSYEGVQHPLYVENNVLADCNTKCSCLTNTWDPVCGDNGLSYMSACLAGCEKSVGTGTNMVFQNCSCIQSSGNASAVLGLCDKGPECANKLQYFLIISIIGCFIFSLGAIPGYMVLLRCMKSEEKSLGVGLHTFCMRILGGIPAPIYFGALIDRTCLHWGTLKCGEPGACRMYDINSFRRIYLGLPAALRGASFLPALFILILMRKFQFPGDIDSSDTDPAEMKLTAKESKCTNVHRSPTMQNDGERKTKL
Procedure: 293FT cells were purchased from Thermo Fisher Scientific, Inc.. The cells were grown in Dulbecco's modified Eagle medium (supplemented with 4.5 g/L glucose and 2 mM L‐glutamine) at 37°C, 5% CO2, and 95% humidity. The cells were passaged 3 times per week by harvesting cells using trypsin and plating at a density of 1.0 × 10^4 cells/cm^2 in a 10 cm cell culture plate for maintenance culture. The 293FT cells were detached using trypsin and re‐seeded at a density of 2.5 × 10^4 cells/cm^2 in BioCoat™ Collagen I 6‐well plates (Corning Inc.) for transfection and then treated with 1.2 μg of plasmid vector and 3.2 μl of Lipofectamine™ 2000 Transfection Reagent (Thermo Fisher Scientific, Inc.) according to the manufacturer's instructions. After a 3‐h treatment, the transfection medium was replaced with a fresh cell culture medium and incubated at 37°C with 95% humidity and 5% CO2 until ready for the assay.
Transport experiments were conducted approximately 24 h post‐transfection. The experiments were initiated by aspirating culture medium and addition of pre‐warmed radiolabeled substrate solution (final 1.0% of acetonitrile or 0.9% of ethanol in phosphate‐buffered saline (PBS[−])) to each well. After a 10‐min incubation, cells were washed twice with 1 ml of ice‐cold PBS(−) and lysed with 700 μl of 1.0 M NaOH for 3 h or more at room temperature. The lysate was transferred to a 1.5‐ml tube, and neutralized with 350 μl of 2.0 M HCl and 350 μl of 2.0% sodium dodecyl sulfate (SDS) solution. From the lysate, 1.0 ml was transferred to a vial containing 10 ml of Emulsifier Scintillator Plus to measure the radioactivity in the LSC. The protein concentration of the cell lysate was also measured using a Pierce™ BCA Protein Assay Kit (Thermo Fisher Scientific, Inc.), which was used to normalize, according to the cell number, the radioactivity in the cell lysate extract. The protein assay was performed in duplicate. Each sample type was assayed in triplicate wells, and each run was performed twice. […] Each sample type was assayed in triplicate wells.

[2] = Female, epyrifenacil 1 mg/kg p.o. + Digoxin 100 mg/kg i.p.
[3] = Female, epyrifenacil 1 mg/kg p.o. + Digoxin 200 mg/kg p.o.
[4] = Female, epyrifenacil 1 mg/kg p.o. + Rifampicin 200 mg/kg p.o.
[5] = Female, epyrifenacil 1 mg/kg p.o., no inhibitor
[6] = Female, 2 h after epyrifenacil 1 mg/kg p.o. + Digoxin 100 mg/kg i.p.
[7] = Female, 2 h after epyrifenacil 1 mg/kg p.o. + Digoxin 100 mg/kg i.p., listed as [^14C]Epyrifenacil
[8] = Female, 2 h after epyrifenacil 1 mg/kg p.o. + Digoxin 200 mg/kg p.o.
[9] = Female, 2 h after epyrifenacil 1 mg/kg p.o. + Digoxin 200 mg/kg p.o., listed as [^14C]Epyrifenacil
[10] = Female, 2 h after epyrifenacil 1 mg/kg p.o. + Rifampicin 200 mg/kg p.o.
[11] = Female, 2 h after epyrifenacil 1 mg/kg p.o. + Rifampicin 200 mg/kg p.o., listed as [^14C]Epyrifenacil
[12] = Female, 2 h after epyrifenacil 1 mg/kg p.o., no inhibitor
[13] = Female, 2 h after epyrifenacil 1 mg/kg p.o., no inhibitor, listed as [^14C]Epyrifenacil
[14] = Male, epyrifenacil 1 mg/kg p.o. + Digoxin 100 mg/kg i.p.
[15] = Male, epyrifenacil 1 mg/kg p.o. + Digoxin 200 mg/kg p.o.
[16] = Male, epyrifenacil 1 mg/kg p.o. + Rifampicin 200 mg/kg p.o.
[17] = Male, epyrifenacil 1 mg/kg p.o., no inhibitor
[18] = Male, 2 h after epyrifenacil 1 mg/kg p.o. + Digoxin 100 mg/kg i.p.
[19] = Male, 2 h after epyrifenacil 1 mg/kg p.o. + Digoxin 100 mg/kg i.p., listed as [^14C]Epyrifenacil
[20] = Male, 2 h after epyrifenacil 1 mg/kg p.o. + Digoxin 200 mg/kg p.o.
[21] = Male, 2 h after epyrifenacil 1 mg/kg p.o. + Digoxin 200 mg/kg p.o., listed as [^14C]Epyrifenacil
[22] = Male, 2 h after epyrifenacil 1 mg/kg p.o. + Rifampicin 200 mg/kg p.o.
[23] = Male, 2 h after epyrifenacil 1 mg/kg p.o. + Rifampicin 200 mg/kg p.o., listed as [^14C]Epyrifenacil
[24] = Male, 2 h after epyrifenacil 1 mg/kg p.o., no inhibitor
[25] = Male, 2 h after epyrifenacil 1 mg/kg p.o., no inhibitor, listed as [^14C]Epyrifenacil

CCOC(=O)COc1ncccc1Oc1cc(-n2c(=O)cc(C(F)(F)F)n(C)c2=O)c(F)cc1Cl [Epyrifenacil, ethyl[(3‐{2‐chloro‐4‐fluoro‐5‐[3‐methyl‐2,6‐dioxo‐4‐(trifluoromethyl)‐3,6‐dihydropyrimidin‐1(2H)‐yl]phenoxy}pyridin‐2‐yl)oxy]acetate]
Kidney/plasma ratio of ^14C [1, 2]: (2.2)
Liver/plasma ratio of ^14C [1, 2]: (41)
Kidney/plasma ratio of ^14C [1, 3]: (1.6)
Liver/plasma ratio of ^14C [1, 3]: (43)
Liver/plasma ratio of ^14C ([1]; Female, epyrifenacil 1 mg/kg p.o. + Digoxin 200 mg/kg p.o., listed as [^14C]epyrifenacil): ca. 43
Kidney/plasma ratio of ^14C [1, 4]: (0.60)
Liver/plasma ratio of ^14C [1, 4]: (4.0)
Liver/plasma ratio of ^14C ([1]; Female, epyrifenacil 1 mg/kg p.o. + Rifampicin 200 mg/kg p.o., listed as [^14C]epyrifenacil): ~4
Kidney/plasma ratio of ^14C [1, 5]: (1.3)
Liver/plasma ratio of ^14C [1, 5]: (35)
Liver/plasma ratio of ^14C ([1]; Female, epyrifenacil 1 mg/kg p.o., no inhibitor, listed as [^14C]epyrifenacil): ~35
^14C‐Concentration, Kidney [1, 6]: 0.184 ± 0.0360 μg eq. of epyrifenacil/g tissue
^14C‐Concentration, Liver [1, 6]: 3.390 ± 1.9870 μg eq. of epyrifenacil/g tissue
^14C‐Concentration, Plasma [1, 6]: 0.082 ± 0.0574 μg eq. of epyrifenacil/g tissue
^14C‐Concentration, Kidney [1, 7]: 0.184 μg eq. of epyrifenacil/g tissue
^14C‐Concentration, Liver [1, 7]: 3.390 μg eq. of epyrifenacil/g tissue
^14C‐Concentration, Plasma [1, 7]: 0.082 μg eq. of epyrifenacil/g tissue
^14C‐Concentration, Kidney [1, 8]: 0.086 ± 0.0096 μg eq. of epyrifenacil/g tissue
^14C‐Concentration, Liver [1, 8]: 2.344 ± 0.4524 μg eq. of epyrifenacil/g tissue
^14C‐Concentration, Plasma [1, 8]: 0.054 ± 0.0118 μg eq. of epyrifenacil/g tissue
^14C‐Concentration, Kidney [1, 9]: 0.086 μg eq. of epyrifenacil/g tissue
^14C‐Concentration, Liver [1, 9]: 2.344 μg eq. of epyrifenacil/g tissue
^14C‐Concentration, Plasma [1, 9]: 0.054 μg eq. of epyrifenacil/g tissue
^14C‐Concentration, Kidney [1, 10]: 0.130 ± 0.0548 μg eq. of epyrifenacil/g tissue
^14C‐Concentration, Liver [1, 10]: 0.880 ± 0.4160 μg eq. of epyrifenacil/g tissue
^14C‐Concentration, Plasma [1, 10]: 0.217 ± 0.1551 μg eq. of epyrifenacil/g tissue
^14C‐Concentration, Kidney [1, 11]: 0.130 μg eq. of epyrifenacil/g tissue
^14C‐Concentration, Liver [1, 11]: 0.880 μg eq. of epyrifenacil/g tissue
^14C‐Concentration, Plasma [1, 11]: 0.217 μg eq. of epyrifenacil/g tissue
^14C‐Concentration, Kidney [1, 12]: 0.190 ± 0.0511 μg eq. of epyrifenacil/g tissue
^14C‐Concentration, Liver [1, 12]: 5.136 ± 1.1225 μg eq. of epyrifenacil/g tissue
^14C‐Concentration, Plasma [1, 12]: 0.147 ± 0.0642 μg eq. of epyrifenacil/g tissue
^14C‐Concentration, Kidney [1, 13]: 0.190 μg eq. of epyrifenacil/g tissue
^14C‐Concentration, Liver [1, 13]: 5.136 μg eq. of epyrifenacil/g tissue
^14C‐Concentration, Plasma [1, 13]: 0.147 μg eq. of epyrifenacil/g tissue
Kidney/plasma ratio of ^14C [1, 14]: (1.7)
Liver/plasma ratio of ^14C [1, 14]: (67)
Kidney/plasma ratio of ^14C [1, 15]: (2.6)
Liver/plasma ratio of ^14C [1, 15]: (97)
Liver/plasma ratio of ^14C ([1]; Male, epyrifenacil 1 mg/kg p.o. + Digoxin 200 mg/kg p.o., listed as [^14C]epyrifenacil): ca. 97
Kidney/plasma ratio of ^14C [1, 16]: (0.96)
Liver/plasma ratio of ^14C [1, 16]: (11)
Kidney/plasma ratio of ^14C [1, 17]: (1.3)
Liver/plasma ratio of ^14C [1, 17]: (73)
Liver/plasma ratio of ^14C ([1]; Male, epyrifenacil 1 mg/kg p.o., no inhibitor, listed as [^14C]epyrifenacil): ca. 73
^14C‐Concentration, Kidney [1, 18]: 0.140 ± 0.0527 μg eq. of epyrifenacil/g tissue
^14C‐Concentration, Liver [1, 18]: 5.527 ± 1.3453 μg eq. of epyrifenacil/g tissue
^14C‐Concentration, Plasma [1, 18]: 0.083 ± 0.0027 μg eq. of epyrifenacil/g tissue
^14C‐Concentration, Kidney [1, 19]: 0.140 μg eq. of epyrifenacil/g tissue
^14C‐Concentration, Liver [1, 19]: 5.527 μg eq. of epyrifenacil/g tissue
^14C‐Concentration, Plasma [1, 19]: 0.083 μg eq. of epyrifenacil/g tissue
^14C‐Concentration, Kidney [1, 20]: 0.044 ± 0.0051 μg eq. of epyrifenacil/g tissue
^14C‐Concentration, Liver [1, 20]: 1.647 ± 0.7217 μg eq. of epyrifenacil/g tissue
^14C‐Concentration, Plasma [1, 20]: 0.017 ± 0.0064 μg eq. of epyrifenacil/g tissue
^14C‐Concentration, Kidney [1, 21]: 0.044 μg eq. of epyrifenacil/g tissue
^14C‐Concentration, Liver [1, 21]: 1.647 μg eq. of epyrifenacil/g tissue
^14C‐Concentration, Plasma [1, 21]: 0.017 μg eq. of epyrifenacil/g tissue
^14C‐Concentration, Kidney [1, 22]: 0.144 ± 0.0794 μg eq. of epyrifenacil/g tissue
^14C‐Concentration, Liver [1, 22]: 1.671 ± 1.2478 μg eq. of epyrifenacil/g tissue
^14C‐Concentration, Plasma [1, 22]: 0.151 ± 0.0791 μg eq. of epyrifenacil/g tissue
^14C‐Concentration, Kidney [1, 23]: 0.144 μg eq. of epyrifenacil/g tissue
^14C‐Concentration, Liver [1, 23]: 1.671 μg eq. of epyrifenacil/g tissue
^14C‐Concentration, Plasma [1, 23]: 0.151 μg eq. of epyrifenacil/g tissue
^14C‐Concentration, Kidney [1, 24]: 0.124 ± 0.0180 μg eq. of epyrifenacil/g tissue
^14C‐Concentration, Liver [1, 24]: 6.763 ± 0.1014 μg eq. of epyrifenacil/g tissue
^14C‐Concentration, Plasma [1, 24]: 0.092 ± 0.0066 μg eq. of epyrifenacil/g tissue
^14C‐Concentration, Kidney [1, 25]: 0.124 μg eq. of epyrifenacil/g tissue
^14C‐Concentration, Liver [1, 25]: 6.763 μg eq. of epyrifenacil/g tissue
^14C‐Concentration, Plasma [1, 25]: 0.092 μg eq. of epyrifenacil/g tissue
Liver/plasma ratio of ^14C‐concentration ([1]; female): 41–43
^14C‐concentration in liver ([1]; females, co‐administration of RIF 200 mg/kg oral): 0.880 ppm
^14C‐concentration in liver ([1]; females, epyrifenacil 1 mg/kg p.o., no inhibitor): 5.136 ± 1.1225 ppm
Liver/plasma ratio of ^14C‐concentration ([1]; male): 67–97
^14C‐concentration in liver ([1]; males, co‐administration of RIF 200 mg/kg oral): 1.671 ppm
^14C‐concentration in liver ([1]; males, epyrifenacil 1 mg/kg p.o., no inhibitor, ppm = µg eq. of epyrifenacil/g): 6.763 ± 0.1014 ppm

CO[C@H]1/C=C/O[C@@]2(C)Oc3c(C)c(O)c4c(O)c(c(/C=N/N5CCN(C)CC5)c(O)c4c3C2=O)NC(=O)/C(C)=C\C=C\[C@H](C)[C@H](O)[C@@H](C)[C@@H](O)[C@@H](C)[C@H](OC(C)=O)[C@@H]1C [RIF, Rifampicin]
Uptake of S‐3100‐CA, % of that by vehicle‐treated cells (mouse Oatp1a4): less than 40%
